Measured values published in patent US8168651B2, “Protein kinase modulators” (Cylene Pharmaceuticals, Inc., priority 2008, dated 2012).
pIC50: −log10 of the molar value. Like-named read-outs stand apart in the source and are kept apart here.

Tests used:
[1] = system: HCT-116 human colorectal carcinoma cells; experiment: Cell-proliferation assay using Alamar Blue dye; format: cell-based; details: Homo sapiens, HCT-116, HCT-116, second column; read-out: HCT-116 (uM), cell proliferation modulatory activity;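 further: cells exposed to compound for about 4 days, then Alamar Blue added and dye fluorescence read after about 4 h, compared with medium-only control wells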
[2] = system: MV-4-11; experiment: Cell proliferation modulatory activity, MV-4-11; format: cell-based; details: Homo sapiens, MV4-11
[3] = target: recombinant human CK2 (Homo sapiens (Human), UniProt P68400); experiment: CK2 assay (cell-free, 33P-ATP filter plate); format: biochemical; details: cell-free
recombinant human CK2, sequence (P68400 whole entry): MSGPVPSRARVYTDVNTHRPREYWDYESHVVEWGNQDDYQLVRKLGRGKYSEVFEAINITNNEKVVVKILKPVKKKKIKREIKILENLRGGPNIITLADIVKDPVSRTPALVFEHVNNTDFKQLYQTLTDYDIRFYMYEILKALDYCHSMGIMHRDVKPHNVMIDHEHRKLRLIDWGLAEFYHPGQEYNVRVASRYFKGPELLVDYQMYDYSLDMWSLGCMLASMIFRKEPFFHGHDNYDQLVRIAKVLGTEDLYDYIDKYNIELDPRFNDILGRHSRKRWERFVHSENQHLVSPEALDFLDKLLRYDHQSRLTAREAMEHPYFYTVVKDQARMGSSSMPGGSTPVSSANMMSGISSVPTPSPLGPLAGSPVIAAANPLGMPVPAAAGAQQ
recombinant human CK2, sequence (P67870 whole entry partner): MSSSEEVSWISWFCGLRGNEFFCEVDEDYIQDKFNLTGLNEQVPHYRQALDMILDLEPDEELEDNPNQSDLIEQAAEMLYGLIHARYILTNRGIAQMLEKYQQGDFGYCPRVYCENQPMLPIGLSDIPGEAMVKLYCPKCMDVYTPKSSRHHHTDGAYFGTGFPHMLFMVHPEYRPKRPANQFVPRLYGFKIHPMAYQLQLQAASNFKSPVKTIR

[4] = target: recombinant human PIM1 (Homo sapiens (Human), UniProt P11309); experiment: PIM-1 kinase activity in cell-free in vitro assay; format: biochemical; details: for inhibition at 0.5 µM: 500 nM compound, read-out: PIM-1: % inh 500 nM
recombinant human PIM1, sequence (P11309 whole entry): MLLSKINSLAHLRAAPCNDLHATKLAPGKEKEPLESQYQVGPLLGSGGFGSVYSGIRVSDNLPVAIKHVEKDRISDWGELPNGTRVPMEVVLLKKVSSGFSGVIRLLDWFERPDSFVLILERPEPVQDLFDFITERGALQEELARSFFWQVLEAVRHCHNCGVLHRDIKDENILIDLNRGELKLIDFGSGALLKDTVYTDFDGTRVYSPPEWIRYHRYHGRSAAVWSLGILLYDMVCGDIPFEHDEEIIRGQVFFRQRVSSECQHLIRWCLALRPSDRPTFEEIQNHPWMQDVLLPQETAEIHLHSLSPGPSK

[5] = target: Flt3 (Homo sapiens (Human), UniProt P36888); experiment: FLT-3 kinase activity in cell free in vitro assay; format: biochemical; details: cell-free; read-out: FLT-3
Flt3, sequence (P36888 27-993): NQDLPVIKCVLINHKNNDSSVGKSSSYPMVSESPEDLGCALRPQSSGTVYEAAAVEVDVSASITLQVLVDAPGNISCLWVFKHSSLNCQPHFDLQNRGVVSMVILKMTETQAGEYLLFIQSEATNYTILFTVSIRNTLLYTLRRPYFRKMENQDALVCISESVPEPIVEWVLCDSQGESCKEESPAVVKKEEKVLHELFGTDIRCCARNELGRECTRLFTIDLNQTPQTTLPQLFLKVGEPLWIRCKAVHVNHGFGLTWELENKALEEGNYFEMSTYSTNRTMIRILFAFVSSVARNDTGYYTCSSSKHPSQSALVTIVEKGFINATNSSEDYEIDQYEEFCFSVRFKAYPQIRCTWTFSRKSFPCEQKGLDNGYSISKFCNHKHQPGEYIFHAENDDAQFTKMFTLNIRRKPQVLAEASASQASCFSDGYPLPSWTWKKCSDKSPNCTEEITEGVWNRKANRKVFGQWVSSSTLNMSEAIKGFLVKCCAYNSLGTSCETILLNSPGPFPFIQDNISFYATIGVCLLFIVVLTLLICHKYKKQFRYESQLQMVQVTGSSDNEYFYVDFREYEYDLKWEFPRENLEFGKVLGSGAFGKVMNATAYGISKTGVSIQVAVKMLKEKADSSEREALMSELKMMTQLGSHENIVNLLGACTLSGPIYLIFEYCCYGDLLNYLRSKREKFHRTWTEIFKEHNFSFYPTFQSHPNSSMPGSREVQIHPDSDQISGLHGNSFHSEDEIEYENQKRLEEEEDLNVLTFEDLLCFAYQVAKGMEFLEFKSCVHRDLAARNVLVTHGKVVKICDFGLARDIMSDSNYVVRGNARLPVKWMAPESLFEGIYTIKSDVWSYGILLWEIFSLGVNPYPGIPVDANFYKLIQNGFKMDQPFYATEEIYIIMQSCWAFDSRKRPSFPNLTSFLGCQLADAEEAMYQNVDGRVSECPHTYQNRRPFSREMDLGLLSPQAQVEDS

[6] = system: K-562; experiment: Cell proliferation modulatory activity, K-562; format: cell-based; details: Homo sapiens, K562
[7] = system: MV-4-11; experiment: Cell proliferation modulatory activity, MV-4-11; format: cell-based; details: Homo sapiens, MV4-11; Table 45; read-out: MV-4-11 IC50
[8] = system: MiaPaca human pancreatic carcinoma cells; experiment: Cell-proliferation assay using Alamar Blue dye; format: cell-based; details: MIA PaCa-2, Table 45
Protocol: A representative cell-proliferation assay protocol using Alamar Blue dye (stored at 4° C., use 20 ul per well) is described hereafter.
• a. Split and trypsinize cells. • b. Count cells using hemocytometer. • c. Plate 4,000-5,000 cells per well in 100 μl of medium and seed into a 96-well plate according to the following plate layout. Add cell culture medium only to wells B10 to B12. Wells B1 to B9 have cells but no compound added.
• d. Add 100 μl of 2× drug dilution to each well in a concentration shown in the plate layout above. At the same time, add 100 μl of media into the control wells (wells B10 to B12). Total volume is 200 μl/well. • e. Incubate four (4) days at 37° C., 5% CO2 in a humidified incubator. • f. Add 20 μl Alamar Blue reagent to each well. • g. Incubate for four (4) hours at 37° C., 5% CO2 in a humidified incubator. • h. Record fluorescence at an excitation wavelength of 544 nm and emission wavelength of 590 nm using a microplate reader.
In the assays, cells are cultured with a test compound for approximately four days, the dye then is added to the cells and fluorescence of […] dye is detected after approximately four hours. Different types of cells can be utilized in the assays (e.g., HCT-116 human colorectal carcinoma cells, PC-3 human prostatic cancer cells and MiaPaca human pancreatic carcinoma cells). Anti-proliferative effects of representative compounds are provided hereafter

[9] = target: PIM2 (Homo sapiens (Human), UniProt Q9P1W9); experiment: PIM2 IC50; format: biochemical; details: Table 45
PIM2, sequence (Q9P1W9 whole entry): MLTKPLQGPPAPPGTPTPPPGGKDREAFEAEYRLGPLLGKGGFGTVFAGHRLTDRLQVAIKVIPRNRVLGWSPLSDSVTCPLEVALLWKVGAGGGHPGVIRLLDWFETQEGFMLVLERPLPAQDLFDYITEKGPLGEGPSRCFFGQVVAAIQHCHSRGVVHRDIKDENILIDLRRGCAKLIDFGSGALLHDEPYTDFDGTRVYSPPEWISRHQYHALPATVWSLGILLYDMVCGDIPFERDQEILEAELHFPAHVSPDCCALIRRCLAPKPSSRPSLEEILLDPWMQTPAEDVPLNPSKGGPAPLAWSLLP

[10] = system: phosphoBAD ser 112; experiment: phosphoBAD ser 112 IC50; format: cell-based; details: read-out: phosphoBAD ser 112 IC50; Table 45
[11] = system: K-562; experiment: Cell proliferation modulatory activity, K-562; format: cell-based; details: Homo sapiens, K562; Table 45; read-out: K-562 IC50
[12] = system: MDAMB231; experiment: MDAMB231 IC50; format: cell-based; details: Homo sapiens, MDA-MB-231; Table 45

| Structure (SMILES) | IC50 [1] [µM] | IC50 [2] [µM] | pIC50 ([3]; 15 um ATP, read-out: CK2 (15 um ATP) IC50) | pIC50 ([3]; 20 um ATP, read-out: CK2 (20 um ATP) IC50) | inhibition at 0.5 µM ([4]; cell-free) [%] | pIC50 ([4]; cell-free) | pIC50 [5] | IC50 [6] [µM] | inhibition at 0.5 µM ([3]; 500 nM compound, read-out: CK2: % inh 500 nM) [%] | pIC50 [7] | pIC50 [8] | pIC50 [9] | pIC50 ([4]; Table 45) | pIC50 [10] | pIC50 [11] | pIC50 [12] |
| --- | --- | --- | --- | --- | --- | --- | --- | --- | --- | --- | --- | --- | --- | --- | --- | --- |
| FC(F)(F)c1cccc(Nc2nc3cc(-c4nnn[nH]4)ccc3c3sccc23)c1 | > 10 | 0.093 | 6.34 | 6.39 | 59 | 6.69 | < 6.40 | > 10 |  |  |  |  |  |  |  |  |
| COC(=O)c1ccc2c(c1)nc(Nc1cccc(Cl)c1)c1ccncc12 |  | 0.161 |  |  | 7.83 |  | < 6.40 | 0.217 | 13.4 |  |  |  |  |  |  |  |
| Fc1ccc(Nc2nc3c(-c4nnc[nH]4)cccc3c3cnccc23)cc1 |  |  |  |  |  |  |  |  |  | > 6.30 | > 5.30 | > 6.30 | > 7.00 | > 6.30 | < 5.00 | > 5.30 |
| Cc1ccc(F)cc1Nc1nc2c(-c3nnc[nH]3)cccc2c2cnccc12 |  |  |  |  |  |  |  |  |  |  |  | > 7.00 |  |  | < 5.00 | < 5.00 |
| COc1ccccc1Nc1nc2c(-c3nnc[nH]3)cccc2c2cnccc12 |  |  |  |  |  |  |  |  |  | > 7.00 |  | > 6.00 | > 7.00 | > 7.00 | > 5.30 | > 5.30 |
| Clc1cccc(Nc2nc3c(-c4nc[nH]n4)cccc3c3ccncc23)c1 |  |  |  |  |  |  |  |  |  | < 5.00 | < 5.00 | > 6.30 | > 7.00 |  | < 5.00 | < 5.00 |
| N#Cc1cccc(Nc2nc3c(-c4nc[nH]n4)cccc3c3cnccc23)c1 |  |  |  |  |  |  |  |  |  | > 7.00 | < 5.00 | < 5.96 | > 7.00 | > 5.30 | < 5.00 |  |
| CN(c1ccccc1Cl)c1nc2c(-c3nnc[nH]3)cccc2c2cnccc12 |  |  |  |  |  |  |  |  |  | > 7.00 |  | > 6.00 | > 7.00 | > 5.30 | > 5.30 | < 5.00 |
| c1cc(-c2nc[nH]n2)c2nc(NCC3CC3)c3ccncc3c2c1 |  |  |  |  |  |  |  |  |  | > 7.00 | > 5.00 | > 6.30 | > 7.00 | > 7.00 | < 5.00 |  |
| Fc1cccc(Nc2nc3c(-c4nnc[nH]4)cccc3c3cnccc23)c1 |  |  |  |  |  |  |  |  |  | > 6.30 | > 6.00 |  | > 7.00 | > 6.30 |  |  |
| FC(F)(F)c1cccc(Nc2nc3c(-c4nnc[nH]4)cccc3c3cnccc23)c1 |  |  |  |  |  |  |  |  |  | > 6.30 | > 5.30 | < 5.96 | > 6.30 | > 6.00 | > 5.30 |  |
| NC(=O)c1cccc2c1nc(Nc1cccc(Cl)c1)c1cnccc12 |  |  |  |  |  |  |  |  |  | < 5.00 | < 5.00 |  | > 6.30 |  | < 5.00 | < 5.00 |
| COCCOc1cccc(Nc2nc3c(-c4nnc[nH]4)cccc3c3cnccc23)c1 |  |  |  |  |  |  |  |  |  | > 7.00 | < 5.00 |  | > 6.30 | > 7.00 | < 5.00 | < 5.00 |
| Clc1ccccc1Nc1nc2c(-c3nnc[nH]3)cccc2c2cnccc12 [drawing 2209] |  |  |  |  |  |  |  |  |  |  | > 6.30 | > 7.00 |  |  | > 5.30 | > 6.30 |

Second part, the molecule after the results:

| IC50 [1] [µM] | IC50 [2] [µM] | pIC50 ([3]; 15 um ATP, read-out: CK2 (15 um ATP) IC50) | pIC50 ([3]; 20 um ATP, read-out: CK2 (20 um ATP) IC50) | inhibition at 0.5 µM ([4]; cell-free) [%] | pIC50 ([4]; cell-free) | pIC50 [5] | IC50 [6] [µM] | inhibition at 0.5 µM ([3]; 500 nM compound, read-out: CK2: % inh 500 nM) [%] | pIC50 [7] | pIC50 [8] | pIC50 [9] | pIC50 ([4]; Table 45) | pIC50 [10] | pIC50 [11] | pIC50 [12] | Structure (SMILES) |
| --- | --- | --- | --- | --- | --- | --- | --- | --- | --- | --- | --- | --- | --- | --- | --- | --- |
|  |  |  |  |  |  |  |  |  | > 6.30 | < 5.00 | > 7.00 | > 7.00 | > 6.30 | > 6.30 |  | Fc1ccc(Nc2nc3c(-c4nnc[nH]4)cccc3c3cnccc23)c(Cl)c1 |
|  |  |  |  |  |  |  |  |  | > 7.00 | > 5.30 | > 7.00 | > 7.00 | > 7.00 | > 6.30 | < 5.00 | Cc1cc(F)ccc1Nc1nc2c(-c3nnc[nH]3)cccc2c2cnccc12 |
|  |  |  |  |  |  |  |  |  | > 7.00 | > 6.00 | > 7.00 | > 7.00 | > 6.00 | > 5.30 | > 6.00 | Fc1ccc(Cl)cc1Nc1nc2c(-c3nnc[nH]3)cccc2c2cnccc12 |
|  |  |  |  |  |  |  |  |  | > 7.00 | > 6.30 | > 7.00 | > 7.00 | > 7.00 | > 6.30 |  | COc1ccc(Nc2nc3c(-c4nc[nH]n4)cccc3c3cnccc23)cc1 |
|  |  |  |  |  |  |  |  |  | > 7.00 | > 5.30 | > 7.00 | > 7.00 | > 7.00 | > 5.30 | > 5.30 | Fc1ccc(Nc2nc3c(-c4nc[nH]n4)cccc3c3cnccc23)c(F)c1 |
|  |  |  |  |  |  |  |  |  |  | > 6.00 |  |  |  | > 6.00 | < 5.00 | Cc1ccccc1Nc1nc2c(-c3nnc[nH]3)cccc2c2cnccc12 |
|  |  |  |  |  |  |  |  |  | > 7.00 | > 6.00 | > 7.00 | > 7.00 | > 7.00 | > 6.30 | > 5.30 | Fc1cccc(F)c1Nc1nc2c(-c3nnc[nH]3)cccc2c2cnccc12 |
|  |  |  |  |  |  |  |  |  | > 7.00 | > 6.00 | > 7.00 | > 7.00 | > 5.30 | > 6.30 |  | Fc1ccccc1Nc1nc2c(-c3nnc[nH]3)cccc2c2cnccc12 |
|  |  |  |  |  |  |  |  |  | > 7.00 | > 6.00 | > 6.00 | > 7.00 | > 7.00 | > 5.30 | < 5.00 | c1ccc(Nc2nc3c(-c4nnc[nH]4)cccc3c3cnccc23)cc1 |
|  |  |  |  |  |  |  |  |  | > 7.00 | > 6.00 | > 6.30 | > 7.00 | > 7.00 | > 5.30 | < 5.00 | CCOc1ccc(Nc2nc3c(-c4nnc[nH]4)cccc3c3cnccc23)cc1 |
|  |  |  |  |  |  |  |  |  | > 7.00 | > 6.00 | > 7.00 | > 7.00 | > 7.00 | > 7.00 | > 6.00 | c1cc(-c2nc[nH]n2)c2nc(NC3CC3)c3ccncc3c2c1 |
|  |  |  |  |  |  |  |  |  | > 7.00 | > 6.30 | > 7.00 | > 7.00 | > 7.00 | > 5.30 | > 6.30 | C#Cc1cccc(Nc2nc3c(-c4nnc[nH]4)cccc3c3cnccc23)c1 |
|  |  |  |  |  |  |  |  |  | > 6.30 | > 6.00 | > 7.00 | > 7.00 | > 6.00 | > 6.00 | > 5.30 | Clc1cccc(Nc2nc3c(-c4nnc[nH]4)cccc3c3cnccc23)c1 |
|  |  |  |  |  |  |  |  |  | > 6.30 | < 5.00 | > 6.30 | > 7.00 | > 5.30 | > 6.30 | < 5.00 | Clc1ccc(Nc2nc3c(-c4nc[nH]n4)cccc3c3cnccc23)cc1 |
|  |  |  |  |  |  |  |  |  | > 6.30 | > 6.00 | > 6.00 | > 7.00 | > 7.00 | > 5.30 | > 6.00 | COc1cccc(Nc2nc3c(-c4nnc[nH]4)cccc3c3cnccc23)c1 |
|  |  |  |  |  |  |  |  |  | > 6.30 | < 5.00 | > 6.30 | > 7.00 | > 5.30 | > 6.30 | < 5.00 | COc1cccc(CNc2nc3c(-c4nc[nH]n4)cccc3c3cnccc23)c1 |
|  |  |  |  |  |  |  |  |  | > 6.00 | > 5.30 | > 5.30 | > 7.00 |  | > 6.30 | < 5.00 | CN(c1ccc(Cl)cc1)c1nc2c(-c3nc[nH]n3)cccc2c2cnccc12 |
|  |  |  |  |  |  |  |  |  | > 6.92 | > 6.00 |  | > 6.30 | > 7.00 | > 6.00 | > 6.00 | NC(=O)c1cccc2c1nc(Nc1cccc(F)c1)c1ccncc12 |
|  |  |  |  |  |  |  |  |  | > 7.00 | > 6.00 |  | > 7.00 | > 5.30 | > 6.30 | > 5.00 | NC(=O)c1cccc2c1nc(Nc1cccc(Cl)c1)c1ccncc12 [drawing 2246] |
